Assay results: patent US10662229B2, “Spider venom peptides and methods of use for modulating sodium channels” (priority 2016, dated 2020)

How the values were obtained:
hNav1.4 = target: T1, hNav1.4 (Homo sapiens, UniProt P35499); assay: Automated patch clamping (QPatch-16), hNav1.4; type: cell-based
T1 construct: host or cells: HEK293
Method: HEK293 cells stably expressing hNav1.1-1.7 or CHO cells stably expressing hNav1.8 (as described in Example 3 above) were cultured in a T-175 flask in selection antibiotic-free media at 37° C. Cells were grown to 70-80% confluence and harvested using Detachin (Bio-Scientific, NSW, Australia) at 37° C. for 2 min. Dissociated cells were then resuspended in Ex-Cell ACF CHO Medium with HEPES (25 mM; Sigma-Aldrich Co.) and allowed to recover on the QStirrer for 30 min.
The extracellular solution contained in mM: NaCl 145, KCl 4, CaCl2 2, MgCl2 1, HEPES 10 and glucose 10. The pH was adjusted to 7.4 with NaOH and osmolarity was adjusted with sucrose to 305 mOsm. The intracellular solution contained in mM: CsF 140, ethylene glycol tetraacetic acid (EGTA)/CsOH 1/5, HEPES 10 and NaCl 10. The pH was adjusted to 7.3 with CsOH and osmolarity adjusted with sucrose to 320 mOsm. […]
The current-voltage (IV) curve was constructed with a holding potential of −80 mV followed by a pre-pulse of −100 mV for 50 ms and a series of 50 ms step pulses that ranged from −80 to 50 mV in 5 mV increments before returning to a holding potential of −80 mV. Voltage-dependence of activation was determined as normalized Nav conductance (GNa) using: GNa=INa/(Vmemb−Vrev), where Vmemb is the membrane potential and Vrev is the reversal potential for each cell. […]

[1] = test system: burns-induced pain in mice; assay: Burns-induced pain; type: in vivo; conditions: intraplantar, 3 days after burns injury
Method: For behavioural assessment adult male C57BL/6J mice aged 6-8 weeks were used. Animals were housed in groups of 3 or 4 per cage, under 12 h light-dark cycles and had standard rodent chow and water ad libitum.
To induce a mild burn injury, the plantar skin of the left hind paw of mice was applied with firm pressure to a Peltier plate (Hot/Cold Plate, Ugo Basile, Comerio, Italy) set at 52.5° C. for 25 s under light isoflurane (3%) anaesthesia. Behavioural assessment (mechanical and thermal thresholds) was performed 3 days after the burns injury.
Mechanical allodynia was assessed using an electronic von Frey apparatus (MouseMet Electronic von Frey, TopCat Metrology Ltd, United Kingdom). […] The force that elicited paw withdrawal was calculated using the MouseMet Software. The paw withdrawal force (PWF) was determined from the average of three tests, separated by at least 2 min.
Mice were habituated in individual mouse runs for at least 5 min prior to testing. […] Removal of the paw and/or the probe by the investigator terminates heating, and triggers display of the withdrawal temperature on the readout, without the need for the investigator to manually stop the heating or record the temperature, until the reset button is pressed. The temperature that elicited a paw withdrawal, known as the paw withdrawal temperature (PWT), was determined by a single test.

hNav1.6 = target: T2, hNav1.6 (Homo sapiens, UniProt Q9UQD0); assay: FLIPR membrane potential assay, hNav1.6; type: cell-based
T2 construct: host or cells: HEK293
T2 sequence (Q9UQD0 whole entry): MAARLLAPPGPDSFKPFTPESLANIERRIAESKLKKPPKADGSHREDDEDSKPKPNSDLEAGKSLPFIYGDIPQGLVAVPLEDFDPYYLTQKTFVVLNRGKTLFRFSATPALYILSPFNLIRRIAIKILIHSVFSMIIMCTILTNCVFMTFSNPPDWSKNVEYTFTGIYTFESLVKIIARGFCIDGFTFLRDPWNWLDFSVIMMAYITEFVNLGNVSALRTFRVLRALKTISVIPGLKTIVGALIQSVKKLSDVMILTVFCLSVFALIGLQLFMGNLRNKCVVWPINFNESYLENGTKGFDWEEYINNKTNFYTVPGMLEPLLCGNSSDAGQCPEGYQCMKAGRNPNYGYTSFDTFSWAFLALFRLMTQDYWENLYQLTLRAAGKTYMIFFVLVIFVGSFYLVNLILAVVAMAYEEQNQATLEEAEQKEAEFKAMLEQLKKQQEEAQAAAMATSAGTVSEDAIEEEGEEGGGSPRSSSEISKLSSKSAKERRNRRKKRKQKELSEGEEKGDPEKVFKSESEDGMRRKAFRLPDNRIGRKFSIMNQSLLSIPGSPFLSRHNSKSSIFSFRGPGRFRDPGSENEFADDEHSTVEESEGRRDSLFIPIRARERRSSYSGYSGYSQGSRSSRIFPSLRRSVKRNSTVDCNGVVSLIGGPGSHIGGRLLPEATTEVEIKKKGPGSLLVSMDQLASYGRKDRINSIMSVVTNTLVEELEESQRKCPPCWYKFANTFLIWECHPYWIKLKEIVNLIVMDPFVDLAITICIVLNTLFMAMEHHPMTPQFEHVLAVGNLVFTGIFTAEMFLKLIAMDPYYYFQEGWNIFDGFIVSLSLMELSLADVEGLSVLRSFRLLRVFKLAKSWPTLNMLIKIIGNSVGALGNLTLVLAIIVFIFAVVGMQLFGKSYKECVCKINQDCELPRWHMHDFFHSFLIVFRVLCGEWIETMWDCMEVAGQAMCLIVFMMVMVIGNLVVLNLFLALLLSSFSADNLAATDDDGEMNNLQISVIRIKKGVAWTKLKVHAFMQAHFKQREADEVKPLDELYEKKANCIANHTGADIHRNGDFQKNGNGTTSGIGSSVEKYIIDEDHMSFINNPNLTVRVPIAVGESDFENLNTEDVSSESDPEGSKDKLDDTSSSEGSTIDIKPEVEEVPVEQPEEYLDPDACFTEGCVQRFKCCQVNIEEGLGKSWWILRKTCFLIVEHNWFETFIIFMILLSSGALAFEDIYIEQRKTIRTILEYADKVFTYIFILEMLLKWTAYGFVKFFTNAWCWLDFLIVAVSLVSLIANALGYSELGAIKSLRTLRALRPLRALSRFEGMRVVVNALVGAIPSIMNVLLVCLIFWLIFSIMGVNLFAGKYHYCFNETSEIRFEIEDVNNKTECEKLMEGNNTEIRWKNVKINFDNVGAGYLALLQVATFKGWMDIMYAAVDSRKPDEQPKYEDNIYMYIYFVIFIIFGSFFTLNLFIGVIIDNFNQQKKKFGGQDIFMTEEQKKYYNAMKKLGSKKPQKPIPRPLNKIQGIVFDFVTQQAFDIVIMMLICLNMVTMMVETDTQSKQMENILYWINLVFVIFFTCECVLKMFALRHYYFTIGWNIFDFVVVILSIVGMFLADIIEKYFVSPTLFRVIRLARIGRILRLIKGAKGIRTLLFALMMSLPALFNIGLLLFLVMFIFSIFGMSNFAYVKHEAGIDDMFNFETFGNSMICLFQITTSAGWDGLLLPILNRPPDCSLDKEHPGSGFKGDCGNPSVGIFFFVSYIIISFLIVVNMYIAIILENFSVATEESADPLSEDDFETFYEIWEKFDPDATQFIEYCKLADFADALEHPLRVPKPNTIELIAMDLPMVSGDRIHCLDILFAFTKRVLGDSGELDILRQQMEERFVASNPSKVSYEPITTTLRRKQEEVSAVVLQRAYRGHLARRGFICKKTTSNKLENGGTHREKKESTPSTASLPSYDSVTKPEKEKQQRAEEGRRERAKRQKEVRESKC
Method in brief: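 Cells plated 48 h before assay, then dye-loaded (red membrane potential dye, 1× in PSS, 30 min, 37° C), then agonist added and membrane potential tracked on FLIPR^TETRA for 300 s. HEK293 stable lines expressing each hNav subtype.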

T1 sequence (P35499 whole entry): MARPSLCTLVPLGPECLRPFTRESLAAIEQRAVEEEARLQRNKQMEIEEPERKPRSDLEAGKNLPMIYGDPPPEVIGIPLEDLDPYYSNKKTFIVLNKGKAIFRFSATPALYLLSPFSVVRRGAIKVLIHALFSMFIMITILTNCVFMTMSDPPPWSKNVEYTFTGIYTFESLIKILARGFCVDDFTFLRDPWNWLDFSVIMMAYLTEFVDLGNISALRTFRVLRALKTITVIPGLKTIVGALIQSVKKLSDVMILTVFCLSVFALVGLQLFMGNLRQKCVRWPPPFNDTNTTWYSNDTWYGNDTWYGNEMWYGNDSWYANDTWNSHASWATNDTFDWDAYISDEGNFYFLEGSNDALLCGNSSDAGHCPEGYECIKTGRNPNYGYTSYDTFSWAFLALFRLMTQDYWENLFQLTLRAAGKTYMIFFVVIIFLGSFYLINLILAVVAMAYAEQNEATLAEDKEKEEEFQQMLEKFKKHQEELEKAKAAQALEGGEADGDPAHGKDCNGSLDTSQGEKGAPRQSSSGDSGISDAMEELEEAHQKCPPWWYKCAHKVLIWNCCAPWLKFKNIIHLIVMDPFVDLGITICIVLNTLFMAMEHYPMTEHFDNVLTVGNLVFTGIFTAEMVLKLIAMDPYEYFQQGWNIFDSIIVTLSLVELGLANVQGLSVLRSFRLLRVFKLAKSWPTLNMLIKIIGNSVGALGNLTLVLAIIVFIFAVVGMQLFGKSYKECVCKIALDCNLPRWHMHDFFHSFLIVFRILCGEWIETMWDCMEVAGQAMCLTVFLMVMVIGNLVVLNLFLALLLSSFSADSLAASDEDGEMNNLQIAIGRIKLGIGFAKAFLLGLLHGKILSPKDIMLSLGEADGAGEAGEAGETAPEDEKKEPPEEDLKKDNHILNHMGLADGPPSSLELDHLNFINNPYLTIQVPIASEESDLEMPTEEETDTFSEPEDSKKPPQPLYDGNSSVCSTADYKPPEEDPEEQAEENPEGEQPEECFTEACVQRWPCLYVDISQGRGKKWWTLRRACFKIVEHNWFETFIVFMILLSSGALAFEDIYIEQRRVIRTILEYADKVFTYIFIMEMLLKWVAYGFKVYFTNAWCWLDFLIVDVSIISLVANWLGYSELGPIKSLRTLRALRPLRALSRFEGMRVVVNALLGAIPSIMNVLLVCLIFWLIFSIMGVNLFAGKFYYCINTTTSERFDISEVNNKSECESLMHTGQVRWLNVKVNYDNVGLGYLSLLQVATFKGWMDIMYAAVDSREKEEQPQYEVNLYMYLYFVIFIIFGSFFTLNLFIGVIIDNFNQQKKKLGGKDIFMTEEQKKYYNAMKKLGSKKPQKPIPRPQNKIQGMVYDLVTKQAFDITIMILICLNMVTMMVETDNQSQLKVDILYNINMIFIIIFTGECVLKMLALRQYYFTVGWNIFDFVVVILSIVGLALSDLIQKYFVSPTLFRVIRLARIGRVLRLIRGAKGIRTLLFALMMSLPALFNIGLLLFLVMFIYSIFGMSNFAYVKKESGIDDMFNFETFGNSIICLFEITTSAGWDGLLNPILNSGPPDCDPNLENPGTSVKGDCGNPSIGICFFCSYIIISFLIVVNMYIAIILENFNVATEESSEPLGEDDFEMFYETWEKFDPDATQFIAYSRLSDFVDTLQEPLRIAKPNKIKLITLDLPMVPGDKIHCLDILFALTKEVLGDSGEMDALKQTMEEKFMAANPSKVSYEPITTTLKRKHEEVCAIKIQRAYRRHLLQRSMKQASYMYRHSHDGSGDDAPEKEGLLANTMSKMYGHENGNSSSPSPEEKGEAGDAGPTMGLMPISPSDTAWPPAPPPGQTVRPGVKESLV

## CSCC[C@@H]1NC(=O)[C@H](Cc2ccc(O)cc2)NC(=O)[C@H](CCCNC(=N)N)NC(=O)[C@@H](NC(=O)[C@@H](N)CC(=O)O)CSSC[C@@H]2NC(=O)[C@@H]3CSSC[C@@H](C(=O)N[C@@H](C)C(=O)N[C@@H](Cc4c[nH]c5ccccc45)C(=O)N[C@@H](CC(=O)O)C(=O)N[C@@H](Cc4ccccc4)C(=O)N[C@H](C(=O)N[C@@H](Cc4ccccc4)C(=O)N[C@H](C(=O)O)[C@@H](C)O)[C@@H](C)O)NC(=O)[C@H](Cc4ccc(O)cc4)NC(=O)[C@H](CCCCN)NC(=O)[C@H](CCSC)NC(=O)[C@H](CCCCN)NC(=O)[C@H](CCCNC(=N)N)NC(=O)[C@H](CCCCN)NC(=O)[C@H](CSSC[C@H](NC(=O)[C@H](CC(=O)O)NC(=O)CNC(=O)[C@H](Cc4ccccc4)NC1=O)C(=O)N[C@@H](CCC(=O)O)C(=O)N[C@@H](CCCCN)C(=O)N[C@@H](CC(=O)O)C(=O)N[C@@H](CCC(=O)O)C(=O)N[C@@H](CC(=O)O)C(=O)N3)NC(=O)CNC(=O)[C@H](CC(C)C)NC(=O)[C@H](Cc1cnc[nH]1)NC(=O)[C@H](CCCCN)NC2=O [Pnc1a]
hNav1.4
  IC50: 0.158 µM
[1]
  mechanical threshold of the injured paw: no significant effect
  thermal threshold of the injured paw: significantly increased
hNav1.6
  IC50: 18.6 µM
